Results published in patent publication US5252718A, “Fibroblast growth factor antagonists” (The Salk Institute for Biological Studies, priority 1992, dated 1993).

Assays:
[1] = test system: FGF receptors of BHK cells; conditions: result in words
[2] = Binding to [^3 H]-heparin; conditions: result in words
[3] = test system: 3T3 cells; assay: [^3 H]-thymidine incorporation in serum-starved 3T3 cells challenged with bFGF; type: cell-based; conditions: 24 hours with peptide and bFGF challenge, then 5 hours label, result in words
Method: The synthesis of bFGF(97-120)-NH2 having the formula: H-Arg-Leu-Glu-Ser-Asn-Asn-Tyr-Asn-Thr-Tyr-Arg-Ser-Arg-Lys-Tyr-Ser-Ser-Trp- Tyr-Val-Ala-Lys-Arg-NH2 is conducted in a stepwise manner using a Beckman 990 synthesizer and an MBHA resin in the manner described in Example I. The peptide is judged to be substantially pure using TLC and HPLC. Testing is carried out using a culture of serum-starved 3T3 cells which are incubated for 24 hours with the bFGF peptide fragment and a challenge dose of bFGF and then incubated for 5 hours with radioactive [^3 H]-thymidine to determine whether the fragment will inhibit the incorporation of [^3 H]-DNA in the cell line which will be indicative of its inhibiting cell growth.

## H-Arg-Leu-Glu-Ser-Asn-Asn-Tyr-Asn-Thr-Tyr-Arg-Ser-Arg-Lys-Tyr-Ser-Ser-Trp- Tyr-Val-Ala-Lys-Arg-NH2 (H-RLESNNYNTYRSRKYSSWYVAKR-NH2) [bFGF(97-120)-NH2]
[1]
  inhibition of bFGF binding to BHK cells (receptor): very strongly inhibits
[2]
  binding of the peptide to heparin: binds itself to heparin
[3]
  inhibition of bFGF-induced mitosis ([^3 H]-thymidine incorporation): very good inhibition

## H-YRSRKYSSWY-NH2 [bFGF(106-115)-NH2, H-Tyr-Arg-Ser-Arg-Lys-Tyr-Ser-Ser-Trp-Tyr-NH2]
[1]
  inhibition of bFGF binding to BHK cells (receptor): very strongly inhibits
[2]
  binding of the peptide to heparin: binds to heparin
[3]
  inhibition of bFGF-induced mitosis ([^3 H]-thymidine incorporation): very good inhibition

## H-YRSRKYSSWYVALKR-NH2 [bFGF(106-120)-NH2, H-Tyr-Arg-Ser-Arg-Lys-Tyr-Ser-Ser-Trp-Tyr-Val-Ala-Leu-Lys-Arg-NH2]
[1]
  inhibition of bFGF binding to BHK cells (receptor): very strongly inhibits
[2]
  binding of the peptide to heparin: binds to heparin
[3]
  inhibition of bFGF-induced mitosis ([^3 H]-thymidine incorporation): very good inhibition
